# Laboratory results as given in patent US12247019B2 (Centaurus Therapeutics, priority 2018, dated 2025).
# Target: T1, Des1 (Homo sapiens, UniProt O15121)
# T1 sequence (O15121 1-323): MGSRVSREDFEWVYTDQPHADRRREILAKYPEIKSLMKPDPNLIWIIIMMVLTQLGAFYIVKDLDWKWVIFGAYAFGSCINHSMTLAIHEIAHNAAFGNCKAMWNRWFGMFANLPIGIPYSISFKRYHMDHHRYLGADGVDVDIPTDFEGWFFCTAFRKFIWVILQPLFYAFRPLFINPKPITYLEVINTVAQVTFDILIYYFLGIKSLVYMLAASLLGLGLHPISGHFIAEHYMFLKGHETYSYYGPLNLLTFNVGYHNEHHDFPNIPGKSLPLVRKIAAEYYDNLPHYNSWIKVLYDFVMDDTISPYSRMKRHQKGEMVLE
# Experiment: Jurkat T cell measurement of conversion of dihydroceramide to ceramide (Des1 activity, LC-MS/MS of NBD-C6-ceramide)
# Type: cell-based
# Parameters: endogenous in cells; host or cells: Jurkat clone E6-1
# Conditions: Jurkat clone E6-1 cells, 10 μM NBD-C6-dihydroceramide, 3 hours at 37° C.; for inhibition at 0.5 µM: 0.5 uM compound, read-out: Des1 % Inhib (0.5 uM); for IC50: read-out: Des1 IC50
# Procedure: Jurkat T Cell Measurement of Conversion of Dihydroceramide to Ceramide
# Jurkat clone E6-1 cells were grown and then seeded at 10^6 cells/mL in a 96-well plate (400 μL in each well. The cells were administered 100 μL of cell culture media containing 50-μM NBD-C6-dihydroceramide (Des1 substrate), affording a final concentration of substrate of 10 μM. The cells were incubated with substrate at 4° C. for 30 minutes. Following the incubation at 4° C., the cell suspension was centrifuged at 1200 rpm for 3 minutes, and the cell pellet is resuspended in 400 μL of fresh media containing various concentrations of either fenretinide (known Des1 inhibitor control compound) or test article. The final concentrations of control compound and test compounds were tested in a range from 0-10 μM. The cells and compounds were incubated at 37° C. for 3 hours. Following the 3-hour incubation, the plate was centrifuged at 2500 g for 3 minutes at 4° C., followed by collection and transfer of 200 μL of the supernatant to a new 96-well plate with 300 μL of methanol an containing appropriate internal standards for liquid chromatography/tandem mass spectroscopy (LC/MS/MS) analysis (internal standard: 500 nM labetalol and 100 nM alprazolam). The samples were vortexed for 2 minutes followed by centrifugation at 3,220 g for 20 minutes. Following centrifugation, 200 μL of the supernatant was transferred to a new 96-well plate for LC-MS/MS analysis to determine the amount of NBD-C6-ceramide (Des1 product) produced. The assay was typically performed in duplicate. A reduction of at least 30% compared to vehicle control (0 μM test article) is indicative of an active compound, and a reduction of 75% compared to vehicle control is preferred.
smiles,measurement,value
"O=C(Nc1ccc(O)cn1)N1CCC(c2ccccc2)CC1 [Example 1, N-(5-Hydroxypyridin-2-yl)-4-phenylpiperidine-1-carboxamide]",inhibition at 0.5 µM,89.6%
same,IC50,42 nM
"O=C(Nc1ccc(O)cn1)N1CCC(c2ccc(F)cc2)CC1 [Example 2, N-[5-[Hydroxy]pyridin-2-yl]-4-(4-fluorophenyl)piperidine-1-carboxamide]",inhibition at 0.5 µM,91.7%
same,IC50,25 nM
"O=C(Nc1ccc(O)cn1)N1CCN(c2ccccc2)CC1 [Example 3, N-(5-Hydroxypyridin-2-yl)-4-phenylpiperazine-1-carboxamide]",inhibition at 0.5 µM,87.9%
same,IC50,53 nM
"O=C(Nc1ccc(O)cn1)N1CCC(c2ccc(Cl)cc2)CC1 [Example 4, 4-(4-Chlorophenyl)-N-(5-hydroxypyridin-2-yl)piperidine-1-carboxamide]",inhibition at 0.5 µM,94.3%
same,IC50,23 nM
"O=C(Nc1ccc(O)cn1)N1CCN(c2ccc(F)cc2)CC1 [Example 5, 4-(4-Fluorophenyl)-N-(5-hydroxypyridin-2-yl)piperazine-1-carboxamide]",inhibition at 0.5 µM,91.5%
same,IC50,32 to 51 nM
"COc1ccc(C2CCN(C(=O)Nc3ccc(O)cn3)CC2)cc1 [Example 6, N-(5-Hydroxypyridin-2-yl)-4-(4-methoxyphenyl)piperidine-1-carboxamide]",inhibition at 0.5 µM,81.8%
same,IC50,69 nM
O=C(Nc1ccc(O)cn1)N1CCC(c2cccc(Cl)c2)CC1 [Example 7],inhibition at 0.5 µM,94%
same,IC50,26 nM
"O=C(Nc1ccc(O)cn1)N1CCC(Cc2ccccc2)CC1 [Example 8, 4-Benzyl-N-(5-hydroxypyridin-2-yl)piperidine-1-carboxamide]",inhibition at 0.5 µM,94.9%
same,IC50,13 nM
"CC(C)C1CCN(C(=O)Nc2ccc(O)cn2)CC1 [Example 9, N-(5-Hydroxypyridin-2-yl)-4-(propan-2-yl)piperidine-1-carboxamide]",inhibition at 0.5 µM,93.8%
same,IC50,17 nM
"O=C(Nc1ccc(O)cn1)N1CCCCC1 [Example 10, N-(5-Hydroxypyridin-2-yl)piperidine-1-carboxamide]",inhibition at 0.5 µM,15%
"O=C(Nc1ccc(O)cn1)N1CCCCCC1 [Example 11, N-(5-hydroxypyridin-2-yl)azepane-1-carboxamide]",inhibition at 0.5 µM,38.5%
"O=C(Nc1ccc(O)cn1)N1CCN(c2ccccc2F)CC1 [Example 12, 4-(2-fluorophenyl)-N-(5-hydroxypyridin-2-yl)piperazine-1-carboxamide]",inhibition at 0.5 µM,90.5%
same,IC50,54 nM
"O=C(Nc1ccc(O)cn1)N1CCN(c2ccc(F)cc2F)CC1 [Example 13, 4-(2,4-difluorophenyl)-N-(5-hydroxypyridin-2-yl)piperazine-1-carboxamide]",inhibition at 0.5 µM,93%
same,IC50,9 to 33 nM
"O=C(Nc1ccc(O)cn1)N1CCN(c2ccc(C(F)(F)F)cc2)CC1 [Example 14, N-(5-Hydroxypyridin-2-yl)-4-[4-(trifluoromethyl)phenyl]piperazine-1-carboxamide]",inhibition at 0.5 µM,95.9%
same,IC50,3 nM
"COc1ccc(N2CCN(C(=O)Nc3ccc(O)cn3)CC2)cc1 [Example 15, N-(5-hydroxypyridin-2-yl)-4-(4-methoxyphenyl)piperazine-1-carboxamide]",inhibition at 0.5 µM,81.8%
same,IC50,110 nM
"O=C(Nc1ccc(O)cn1)N1CCN(c2ncccn2)CC1 [Example 16, N-(5-hydroxypyridin-2-yl)-4-(pyrimidin-2-yl)piperazine-1-carboxamide]",inhibition at 0.5 µM,31.4%
"O=C(Nc1ccc(O)cn1)N1CCN(c2ccccn2)CC1 [Example 17, N-(5-hydroxypyridin-2-yl)-4-(pyridin-2-yl) piperazine-1-carboxamide]",inhibition at 0.5 µM,76.9%
"O=C(Nc1ccc(O)cn1)N1CCN(c2ccc(C(F)(F)F)cn2)CC1 [Example 18, N-(5-hydroxypyridin-2-yl)-4-[5-(trifluoromethyl)pyridin-2-yl]piperazine-1-carboxamide]",inhibition at 0.5 µM,96.6%
same,IC50,4 nM
"O=C(Nc1ccc(O)cn1)N[C@H]1CC[C@H](c2ccccc2)CC1 [Example 19, 3-(5-hydroxypyridin-2-yl)-1-[(1r,4r)-4-phenylcyclohexyl]urea]",inhibition at 0.5 µM,76.7%
"O=C(Nc1ccc(O)cn1)NC1CCOCC1 [Example 20, 3-(5-Hydroxypyridin-2-yl)-1-(oxan-4-yl)urea]",inhibition at 0.5 µM,19.6%
"O=C(Nc1ccc(O)cn1)NC1CCCCC1 [Example 21, 1-cyclohexyl-3-(5-hydroxypyridin-2-yl)urea]",inhibition at 0.5 µM,69.3%
"O=C(Nc1ccc(O)cn1)N1CCN(c2ccc(Cl)cn2)CC1 [Example 22, 4-(5-chloropyridin-2-yl)-N-(5-hydroxypyridin-2-yl)piperazine-1-carboxamide]",IC50,14 nM
"O=C(Nc1ccc(O)cn1)N1CCN(c2ccc(Cl)cc2Cl)CC1 [Example 23, 4-(2,4-dichlorophenyl)-N-(5-hydroxypyridin-2-yl)piperazine-1-carboxamide]",IC50,10 nM
"O=C(Nc1ccc(O)cn1)N1CCN(c2ccc(F)cn2)CC1 [Example 24, 4-(5-fluoropyridin-2-yl)-N-(5-hydroxypyridin-2-yl)piperazine-1-carboxamide]",IC50,64 to 94 nM
"O=C(Nc1ccc(O)cn1)N1CCN(c2ccc(F)c(F)c2)CC1 [Example 25, 4-(3,4-difluorophenyl)-N-(5-hydroxypyridin-2-yl)piperazine-1-carboxamide]",IC50,9 nM
"O=C(Nc1ccc(O)cn1)N1CCN(c2cc(F)cc(F)c2)CC1 [Example 26, 4-(3,5-difluorophenyl)-N-(5-hydroxypyridin-2-yl)piperazine-1-carboxamide]",IC50,12 nM
"N#Cc1ccc(N2CCN(C(=O)Nc3ccc(O)cn3)CC2)cc1 [Example 27, 4-(4-cyanophenyl)-N-(5-hydroxypyridin-2-yl)piperazine-1-carboxamide]",IC50,11 nM
"O=C(Nc1ccc(O)cc1)N1CCN(c2ccc(F)cc2F)CC1 [Example 28, 4-(2,4-difluorophenyl)-N-(4-hydroxyphenyl)piperazine-1-carboxamide]",inhibition at 0.5 µM,57.8%
"O=C(Nc1ccc(O)cc1)N1CCN(c2ccc(F)cc2)CC1 [Example 29, 4-(4-fluorophenyl)-N-(4-hydroxyphenyl)piperazine-1-carboxamide]",inhibition at 0.5 µM,58.6%
"O=C(Nc1ccc(O)cc1)N1CCN(c2ccc(C(F)(F)F)cc2)CC1 [Example 30, N-(4-hydroxyphenyl)-4-[4-(trifluoromethyl)phenyl]piperazine-1-carboxamide]",inhibition at 0.5 µM,89.7%
same,IC50,150 nM
"O=C(Nc1ccc(O)cc1)N1CCN(c2ccc(C(F)(F)F)cn2)CC1 [Example 31, N-(4-hydroxyphenyl)-4-[5-(trifluoromethyl)pyridin-2-yl]piperazine-1-carboxamide]",IC50,340 nM
"O=C(Nc1ccc(O)cn1)NC1CCN(c2ccccc2)CC1 [Example 32, 3-(5-hydroxypyridin-2-yl)-1-(1-phenylpiperidin-4-yl)urea]",IC50,180 nM
"O=C(Nc1ccc(O)cn1)N1CCN(c2cc(C(F)(F)F)ccn2)CC1 [Example 33, N-(5-hydroxypyridin-2-yl)-4-[4-(trifluoromethyl)pyridin-2-yl]piperazine-1-carboxamide]",inhibition at 0.5 µM,93.1%
same,IC50,7 nM
"N#Cc1ccc(N2CCN(C(=O)Nc3ccc(O)cn3)CC2)nc1 [Example 34, 4-(5-cyanopyridin-2-yl)-N-(5-hydroxypyridin-2-yl)piperazine-1-carboxamide]",inhibition at 0.5 µM,85.4%
"O=C(Nc1ccc(O)cn1)N1CCN(c2cccc(F)n2)CC1 [Example 35, 4-(6-fluoropyridin-2-yl)-N-(5-hydroxypyridin-2-yl)piperazine-1-carboxamide]",inhibition at 0.5 µM,91.3%
same,IC50,3 nM
"O=C(Nc1ccc(O)cn1)N1CCN(c2cccc(C(F)(F)F)n2)CC1 [Example 36, N-(5-hydroxypyridin-2-yl)-4-[6-(trifluoromethyl)pyridin-2-yl]piperazine-1-carboxamide]",inhibition at 0.5 µM,94.9%
same,IC50,23 nM
"O=C(Nc1ccc(O)cn1)N1CCN(Cc2ccccc2)CC1 [Example 37, 4-benzyl-N-(5-hydroxypyridin-2-yl)piperazine-1-carboxamide]",inhibition at 0.5 µM,80.7%
"O=C(Nc1ccc(O)cn1)N1CCN(Cc2ccc(F)cc2)CC1 [Example 38, 4-[(4-Fluorophenyl)methyl]-N-(5-hydroxypyridin-2-yl)piperazine-1-carboxamide]",inhibition at 0.5 µM,91.5%
same,IC50,60 nM
